Molecular target: HSP90 (Homo sapiens, UniProt P07900)
Test: HSP90 inhibition (HSP90 IC50)
Assay type: biochemical

Row | SMILES | IC50 [µM]
1 | CC[C@@H](C)Nc1c(C(N)=O)cc(Br)c(C(=O)NC2CC3CCC(C2)N3c2ccc(C(=O)C3CC3)cn2)c1Cl (stereo partly drawn) [5-bromo-3-chloro-N4-{8-[5-(cyclopropylcarbonyl)pyridin-2-yl]-8-azabicyclo[3.2.1]oct-3-endo-yl}-2-{[(1R)-1-methylpropyl]amino}benzene-1,4-dicarboxamide] | < 0.5
2 | Cc1cccc(C(=O)N[C@H]2C[C@H]3CC[C@@H](C2)N3c2ccc(C(=O)NCc3ccccc3)cn2)c1C [6-(3-endo-{[(2,3-dimethylphenyl)carbonyl]amino}-8-azabicyclo[3.2.1]oct-8-yl)-N-(phenylmethyl)pyridine-3-carboxamide] | 2 to 10
3 | Cc1c(N)cccc1C(=O)N[C@H]1C[C@H]2CC[C@@H](C1)N2c1ccc(C(=O)NCc2ccccc2)cn1 [6-(3-endo-{[(3-amino-2-methylphenyl)carbonyl]amino}-8-azabicyclo[3.2.1]oct-8-yl)-N-(phenylmethyl)pyridine-3-carboxamide] | 2 to 10
4 | Cc1c(O)cccc1C(=O)NC1CC2CCC(C1)N2c1ccc(C(=O)NCc2ccccc2)cn1 (stereo not drawn) [6-(3-endo-{[(3-hydroxy-2-methylphenyl)carbonyl]amino}-8-azabicyclo[3.2.1]oct-8-yl)-N-(phenylmethyl)pyridine-3-carboxamide] | 1 to 2
5 | Cc1c(O)cccc1C(=O)NC1CC2CCC(C1)N2c1ccc(C(=O)N[C@@H](C)c2ccc(N3CCN(C)CC3)cc2)cn1 (stereo partly drawn) [6-(3-endo-{[(3-hydroxy-2-methylphenyl)carbonyl]amino}-8-azabicyclo[3.2.1]oct-8-yl)-N-{(1S)-1-[4-(4-methylpiperazin-1-yl)phenyl]ethyl}pyridine-3-carboxamide] | < 0.5
6 | Cc1cc(N)ccc1C(=O)N[C@H]1C[C@H]2CC[C@@H](C1)N2c1ccc(C(N)=O)cn1 [6-(3-endo-{[(4-amino-2-methylphenyl)carbonyl]amino}-8-azabicyclo[3.2.1]oct-8-yl)pyridine-3-carboxamide] | 2 to 10
7 | COc1cccc(C(=O)N[C@H]2C[C@H]3CC[C@@H](C2)N3c2ccc(C(N)=O)cn2)c1CCCCN(C)C [6-(3-endo[({2-[4-(dimethylamino)butyl]-3-(methyloxy)phenyl}carbonyl)amino]-8-azabicyclo[3.2.1]oct-8-yl}pyridine-3-carboxamide] | 1 to 2
8 | COc1cccc(C(=O)N[C@H]2C[C@H]3CC[C@@H](C2)N3c2ccc(C(=O)NCc3cccs3)cn2)c1C [6-[3-endo({[2-methyl-3-(methyloxy)phenyl]carbonyl}amino)-8-azabicyclo[3.2.1]oct-8-yl]-N-(2-thienylmethyl)pyridine-3-carboxamide] | < 0.5
9 | COc1cccc(C(=O)N[C@H]2C[C@H]3CC[C@@H](C2)N3c2ccc(C(=O)NCc3ccc(C)cc3)cn2)c1C [6-[3-endo-({(2-methyl-3-(methyloxy)phenyl]carbonyl}amino)-8-azabicyclo[3.2.1]oct-8-yl]-N-[(4-methylphenyl)methyl]pyridine-3-carboxamide] | < 0.5
10 | O=C(NCc1ccccc1)c1ccc(N2[C@@H]3CC[C@H]2C[C@@H](NC(=O)c2ccc(C(O)CO)cc2)C3)nc1 (stereo partly drawn) [6-[3-endo-({(4-(1,2-dihydroxyethyl)phenyl]carbonyl}amino)-8-azabicyclo[3.2.1]oct-8-yl]-N-(phenylmethyl)pyridine-3-carboxamide] | 1 to 2
11 | COc1cccc(C(=O)N[C@H]2C[C@H]3CC[C@@H](C2)N3c2ccc(C(N)=O)cn2)c1CC(O)CO (stereo partly drawn) [6-[3-endo-({[2-(2,3-dihydroxypropyl)-3-(methyloxy)phenyl]carbonyl}amino)-8-azabicyclo[3.2.1]oct-8-yl]pyridine-3-carboxamide] | 2 to 10
12 | COc1cccc(C(=O)N[C@H]2C[C@H]3CC[C@@H](C2)N3c2ccc(C(=O)NCc3ccccc3)cn2)c1CCCO [6-[3-endo-({[2-(3-hydroxypropyl)-3-(methyloxy)phenyl]carbonyl}amino)-8-azabicyclo[3.2.1]oct-8-yl]-N-(phenylmethyl)pyridine-3-carboxamide] | < 0.5
13 | COc1cccc(C(=O)N[C@H]2C[C@H]3CC[C@@H](C2)N3c2ccc(C(N)=O)cn2)c1CCCO [6-[3-endo-({[2-(3-hydroxypropyl)-3-(methyloxy)phenyl]carbonyl}amino)-8-azabicyclo[3.2.1]oct-8-yl]pyridine-3-carboxamide] | 1 to 2
14 | COc1cccc(C(=O)N[C@H]2C[C@H]3CC[C@@H](C2)N3c2ccc(C(N)=O)cn2)c1C#CCCO [6-[3-endo-({[2-(4-hydroxybut-1-yn-1-yl)-3-(methyloxy)phenyl]carbonyl}amino)-8-azabicyclo[3.2.1]oct-8-yl]pyridine-3-carboxamide] | 2 to 10
15 | COc1cccc(C(=O)N[C@H]2C[C@H]3CC[C@@H](C2)N3c2ccc(C(N)=O)cn2)c1CCCCO [6-[3-endo-({[2-(4-hydroxybutyl)-3-(methyloxy)phenyl]carbonyl}amino)-8-azabicyclo[3.2.1]oct-8-yl]pyridine-3-carboxamide] | 0.5 to 0.999
16 | COc1cccc(C(=O)N[C@H]2C[C@H]3CC[C@@H](C2)N3c2ccc(C(=O)NCc3ccccc3)cn2)c1Br [6-[3-endo-({[2-bromo-3-(methyloxy)phenyl]carbonyl}amino)-8-azabicyclo[3.2.1]oct-8-yl]-N-(phenylmethyl)pyridine-3-carboxamide] | 1 to 2

Row | SMILES | IC50 [µM]
17 | COc1cccc(C(=O)N[C@H]2C[C@H]3CC[C@@H](C2)N3c2ccc(C(N)=O)cn2)c1Cl [6-[3-endo-({[2-chloro-3-(methyloxy)phenyl]carbonyl}amino)-8-azabicyclo[3.2.1]oct-8-yl]pyridine-3-carboxamide] | 2 to 10
18 | COc1cccc(C(=O)N[C@H]2C[C@H]3CC[C@@H](C2)N3c2ccc(C(N)=O)cn2)c1F [6-[3-endo-({[2-fluoro-3-(methyloxy)phenyl]carbonyl}amino)-8-azabicyclo[3.2.1]oct-8-yl]pyridine-3-carboxamide] | 2 to 10
19 | COc1cccc(C(=O)N[C@H]2C[C@H]3CC[C@@H](C2)N3c2ccc(C(=O)NCc3ccccc3)cn2)c1I [6-[3-endo-({[2-iodo-3-(methyloxy)phenyl]carbonyl}amino)-8-azabicyclo[3.2.1]oct-8-yl]-N-(phenylmethyl)pyridine-3-carboxamide] | 2 to 10
20 | COc1ccc(C(=O)N[C@H]2C[C@H]3CC[C@@H](C2)N3c2ccc(C(=O)NCc3ccccc3)cn2)c(C)c1OC [6-[3-endo-({[2-methyl-3,4-bis(methyloxy)phenyl]carbonyl}amino)-8-azabicyclo[3.2.1]oct-8-yl]-N-(phenylmethyl)pyridine-3-carboxamide] | 2 to 10
21 | COc1cccc(C(=O)NC2CC3CCC(C2)N3c2ccc(C(=O)NC3CCN(c4ccccc4)CC3)cn2)c1C (stereo not drawn) [6-[3-endo-({[2-methyl-3-(methyboxy)phenyl]carbonyl}amino)-8-azabicyclo[3.2.1]oct-8-yl]-N-(1-phenylpiperidin-4-yl)pyridine-3-carboxamide] | 2 to 10
22 | CNc1cccc(C(=O)NC2CC3CCC(C2)N3c2ccc(C(=O)N[C@@H](C)c3ccc(N4CCN(C)CC4)cc3)cn2)c1C (stereo partly drawn) [6-[3-endo-({[2-methyl-3-(methylamino)phenyl]carbonyl}amino)-8-azabicyclo[3.2.1]oct-8-yl]-N-{(1S)-1-[4-(4-methylpiperazin-1-yl)phenyl]ethyl}pyridine-3-carboxamide] | < 0.5
23 | C#CCNC(=O)c1ccc(N2[C@@H]3CC[C@H]2C[C@@H](NC(=O)c2cccc(OC)c2C)C3)nc1 [6-[3-endo-({[2-methyl-3-(methyloxy)phenyl)carbonyl}amino)-8-azabicyclo(3.2.1]oct-8-yl]-N-prop-2-yn-1-ylpyridine-3-carboxamide] | 1 to 2
24 | COc1cccc(C(=O)N[C@H]2C[C@H]3CC[C@@H](C2)N3c2ccc(C(=O)NC3CCN(C)CC3)cn2)c1C [6-[3-endo-({[2-methyl-3-(methyloxy)phenyl]carbonyl}amino)-8-azabicyclo[3.2.1]oct-8-yl]-N-(1-methylpiperidin-4-yl)pyridine-3-carboxamide] | 0.5 to 0.999
25 | COc1cccc(C(=O)N[C@H]2C[C@H]3CC[C@@H](C2)N3c2ccc(C(=O)Nc3ccccc3C)cn2)c1C [6-[3-endo-({[2-methyl-3-(methyloxy)phenyl]carbonyl}amino)-8-azabicyclo[3.2.1]oct-8-yl]-N-(2-methylphenyl)pyridine-3-carboxamide] | 2 to 10
26 | COc1cccc(C(=O)N[C@H]2C[C@H]3CC[C@@H](C2)N3c2ccc(C(=O)NCC(C)C)cn2)c1C [6-[3-endo-({[2-methyl-3-(methyloxy)phenyl]carbonyl}amino)-8-azabicyclo[3.2.1]oct-8-yl]-N-(2-methylpropyl)pyridine-3-carboxamide] | 1 to 2
27 | COc1cccc(C(=O)N[C@H]2C[C@H]3CC[C@@H](C2)N3c2ccc(C(=O)NCCN3CCOCC3)cn2)c1C [6-[3-endo-({[2-methyl-3-(methyloxy)phenyl]carbonyl}amino)-8-azabicyclo[3.2.1]oct-8-yl]-N-(2-morpholin-4-ylethyl)pyridine-3-carboxamide] | 1 to 2
28 | COc1cccc(C(=O)N[C@H]2C[C@H]3CC[C@@H](C2)N3c2ccc(C(=O)NCCN3CCCCC3)cn2)c1C [6-[3-endo-({[2-methyl-3-(methyloxy)phenyl]carbonyl}amino)-8-azabicyclo[3.2.1]oct-8-yl]-N-(2-piperidin-1-ylethyl)pyridine-3-carboxamide] | 1 to 2
29 | COc1cccc(C(=O)N[C@H]2C[C@H]3CC[C@@H](C2)N3c2ccc(C(=O)NCCc3cccnc3)cn2)c1C [6-[3-endo-({[2-methyl-3-(methyloxy)phenyl]carbonyl}amino)-8-azabicyclo[3.2.1]oct-8-yl]-N-(2-pyridin-3-ylethyl)pyridine-3-carboxamide] | 1 to 2
30 | COc1cccc(C(=O)N[C@H]2C[C@H]3CC[C@@H](C2)N3c2ccc(C(=O)NCCc3ccncc3)cn2)c1C [6-[3-endo-({[2-methyl-3-(methyloxy)phenyl]carbonyl}amino)-8-azabicyclo[3.2.1]oct-8-yl]-N-(2-pyridin-4-ylethyl)pyridine-3-carboxamide] | 1 to 2
31 | COc1cccc(C(=O)N[C@H]2C[C@H]3CC[C@@H](C2)N3c2ccc(C(=O)Nc3cccc(C)c3)cn2)c1C [6-[3-endo-({[2-methyl-3-(methyloxy)phenyl]carbonyl}amino)-8-azabicyclo[3.2.1]oct-8-yl]-N-(3-methylphenyl)pyridine-3-carboxamide] | 2 to 10
